# The source made the active and inactive calls. No cut-off for these calls is given here.
# Legend:
# Homo sapiens [1] = organism: Homo sapiens; experiment: Binding affinity to human His6-tagged 14-3-3 protein sigma C17 deletion mutant expressed in Escherichia coli BL21 (DE3) at 500 uM by WaterLOGSY NMR analysis
# Homo sapiens [2] = organism: Homo sapiens; experiment: Binding affinity to 15N2H labelled human 14-3-3 protein sigma C17 deletion mutant at dimer interface assessed as chemical shift perturbations in resonances at 2000 uM by 1H-15N TROSY-HSQC 2D NMR analysis
# Homo sapiens [3] = organism: Homo sapiens; experiment: Binding affinity to 15N2H labelled human 14-3-3 protein sigma C17 deletion mutant at top of helices alphaH and alphaI assessed as chemical shift perturbations in resonances at 2000 uM by 1H-15N TROSY-HSQC 2D NMR analysis
Activity (Homo sapiens [1]),Activity (Homo sapiens [2]),Activity (Homo sapiens [3]),Compound
Active,Active,,NC(=O)c1cc(Cl)cc(Cl)c1O
Active,,Active,CC12CC3(C)CC(C)(C1)CC(C(=O)O)(C2)C3
Active,,Active,Cc1ccc(B(O)O)cc1Cl

# Source: ChEMBL document CHEMBL4373661, “Set-up and screening of a fragment library targeting the 14-3-3 protein interface” (Medchemcomm, 2019)
